The test system of experiment [1] is superoxide dismutase extracted from chloroplasts of Conyza bonariensis biotype requiring high levels of oxidant herbicide. Kind of experiment: Inhibition of superoxide dismutase activity on gel. In kind it is biochemical. Conditions: gel soaked with 0.2% diethyldithiocarbamate. Here is the method: (§1) Based on preliminary evidence that there was no difference in superoxides dismutase activity in whole leaves of these two biotypes and our own findings we assayed the levels of the dismutating enzymes in chloroplast extracts. The oxidant producing herbicides are effective in field conditions only in the light. […] This justifies assay of these enzymes in chloroplasts. Intact chloroplasts were isolated according to the method of Slovacek and Hind (Plant Physio. 60, 538 (1977)) except that 50 mM 2-(N-morpholino)ethanesulfonic acid buffer was used instead of the pyrophosphate buffer originally used in the chloroplast isolation medium. […] Chlorophyll content was measured in 80% acetone according to Arnon (Plant Physiol. 24 1 […]). Intactness of chloroplast was measured by means of ribulose-bis-phosphate-carboxylase activity in the chloroplast fraction supernatant according to Bjorkman (Physiol. Plant 21 1, (1968)), and proteins by the method of Bradford (Analyt. Biochem. 72 248 (1976)). […] We developed a technique to quantify superoxide dismutase by generating a standard curve by running different levels of known superoxide dismutase (ex bovine blood, Sigma) on the same gel. […] The gels were scanned in a Beckman DU-8 spectrophotometer, the peak areas were measured and related to the superoxide dismutase standard curve which was linear up to 0.2 enzyme units. […]

Experiment [2] relates to superoxide dismutase extracted from chloroplasts of Conyza bonariensis biotype requiring low levels of oxidant herbicide. Put plainly: Inhibition of superoxide dismutase activity on gel. In kind it is biochemical. Conditions: gel soaked with 0.2% diethyldithiocarbamate. Here is the method:
as §1

A further experiment has as its system bean leaf discs. Kind of experiment: Bean leaf disc bleaching assay. The note with it: paraquat 20 μM; chelator 0.01% w/v where added; 5 h at 450 μEin.m^-2 s^-1. The format is cell-based. Here is the method:
We used this bean leaf disc system to ascertain the potential of chelators to synergize a large variety of phytotoxicants purported to act by generating active oxygen species in the light.
Bean discs were incubated on solutions containing the above mixtures for 5 h at 450 μEin.m^-2 s^-1 and the chlorophyll remaining in the leaves was assayed.

In experiment [3] the test system is Conyza bonariensis paraquat sensitive biotype. Kind of experiment: Phytotoxicity measured as 14CO2 fixation 24 h after spraying. In kind it is in vivo. The note with it: for % photosynthesis inhibition: sensitive biotype. As for the experimental part:
(§2) Seeds of two biotypes of Conyza bonariensis (L.) Cronq. (synonym C. linifolia) were obtained from Egypt. The paraquat sensitive biotype was gathered near Alexendria and seeds of the resistant type from the Tahrir irrigation district. They were obtained from Dr. Martin Parham in England. Seeds were germinated in a growth room with a 14 h light period at 25° C. Plants were transferred out of doors 24 h before being sprayed. The phytotoxicity of three herbicides representative of the three different modes of generating active oxygen species known at present. Commercial paraquat (Gramoxone-ICI Plant Protection Ltd) was formulated with 0.1% (w/v) Tween-20 (a non-ionic surfactant) for spraying. The response to the range of 10^-5 M to 10^-2 M paraquat was measured by spraying two plants per concentration to run-off in the early morning. All plants were exposed to sunlight for at least 13 h (1300 μE.m^-2s^-1 photosynthetically active radiation (PAR) at mid day). Commercial acifluorfen (Blazer, Rohm, and Hass, Philadelphia, Pa., USA) to which was added 0.25% Tween-20 was sprayed to run-off. The response to spraying was measured as with paraquat 24 h after spraying. Commercial atrazine (Atranex 50 WP-Agan) was sprayed at various rates in 0.25% Tween 20 to run off. Fully expanded, 8 to 10 cm long leaves from plants in the rosette stage were used in all experiments. Phytotoxicity of acifluorfen and paraquat was measured as CO2 fixation 24 h later as follows: Detached leaves were placed on wet filter paper in a sealed chamber with 5μ Ci^14 C-sodium bicarbonate. Tartaric acid was remotely dripped on the sodium bicarbonate to release ^14 CO2. Leaves were illuminated with […] (PAR) for 30 min. Eighty percent acetone was added and the mixture put under strong light to photobleach pigments and evaporate the acetone. A scintillation mixture of Lumax:xylene (45:55) was added to the leaves and remaining water. The samples were counted and the data expressed as DPM.cm^-2. Area was measured with a planimeter from photocopies of the leaves made prior to photosynthesis measurements. Phytotoxicity of atrazine was measured as the elevated level of malonyldialdehyde in the tissue. Malonyldialdehyde (as measured with thiobarbituric acid according to Dodge and Gillham (Asp. Appl. Biol 11 97 (1986)) is a measurement of lipoxidation of unsaturated fatty acids, and provides an excellent estimation of damage by active oxygen species.

Experiment [4] concerns Conyza bonariensis paraquat tolerant biotype. Described as above. The format is in vivo. The note with it: for % photosynthesis inhibition: tolerant biotype. As for the experimental part:
as §2

Setting [5] is: herbicide molar conc. 3 × 10^-4.
Where [6] appears, read: herbicide molar conc. 3.2 × 10^-5.

On to `CCN(CC)C(=S)[S-].[Na+]` [DDC, Sodium diethyldithiocarbamate], for which the “% inhibition of activity” value in experiment [1] and in experiment [2] was 100% each time.
For the compound `C[n+]1ccc(-c2cc[n+](C)cc2)cc1` [paraquat, 1,1'-dimethyl-4-4'bipyridium ion], the “chlorophyll - % of control” value with bean leaf discs is 52 % of control. Also, the IC100 in experiment [3] (Conyza bonariensis, 24 h, wild biotype, read-out: concentration at which CO2 assimilation ceased) was 10 µM; in experiment [4] (Conyza bonariensis, 24 h, resistant biotype, read-out: concentration at which CO2 assimilation ceased) it was 1000 µM. Further, the “% photosynthesis inhibition” value turned out to be 100% in experiment [3] (setting [5]); 100% in experiment [3] (setting [6]); 100% in experiment [3] (herbicide molar conc. 10^-3); 100% in experiment [3] (herbicide molar conc. 10^-4); 95% in experiment [3] (herbicide molar conc. 10^-5, spray to run-off); 100% in experiment [4] (herbicide molar conc. 3 × 10^-3). Also, the “% photosynthesis inhibition” value in experiment [4] (setting [5]) is 48%; in experiment [4] (setting [6]), 0%; in experiment [4] (herbicide molar conc. 10^-3), 97%; in experiment [4] (herbicide molar conc. 10^-4), 0%; in experiment [4] (herbicide molar conc. 10^-5), 0%.

Source of the values: US5219825A, “Synergistic herbicidal compositions comprising herbicides which generate toxic oxygen radicals and chelating agents which inhibit their detoxification” (Yeda Research and Development Co., Ltd., priority 1986, dated 1993).
